What was measured:
[1] = tested on: MAP kinase; experiment: Activation (phosphorylation) of MAP kinase by Western immunoblotting in cultured cerebral cortex nerve cells; assay type: cell-based, rat; details: for Ratio of pMAPK to MAPK: Test Example 6, relative to control (0 μg/mL = 1.0)
Description: With regard to the compound 1 ((E)-2-(dimethylamino)-ethyl dec-2-enoate), activation of MAP kinase was measured as follows by a Western immunoblotting.
Nerve cells were dispersed from cerebral cortex of a fetal rat of 17 days age and said nerve cells were cultured for one day in a Dulbecco-modified Eagle medium (DMEM) containing 5% fetal bovine serum. The culture medium was exchanged with a serum-free medium (B27 supplement-added Neurobasal; Invitrogen) and the nerve cells were cultured at the density of 20,000 to 40,000 cells per cm^2 in a culture dish coated with polyornithine.
After three days, the compound 1 was added and the culture was continued for 30 minutes. After that, the cells were recovered on ice using a solution containing a phosphatase inhibitor where Tris-HCl buffer was a base. Protein concentration of the resulting cell extract was quantified using a BCA Protein Assay Kit (Takara Bio KK) and a certine amount of protein (3 μg for the measurement of MAP kinase and 5 μg for the measurement of phosphorylated MAP kinase) was subjected to polyacrylamide gel electrophoresis. The protein was transcribed from the gel after the electrophoresis to a PVDF membrane and a Western immunoblotting was carried out using each of an anti-MAP kinase antibody (Cell Signaling Technology) and an anti-phosphorylated MAP kinase antibody (Cell Signaling Technology) of the primary antibody.
After that, the reaction with an alkaline phosphatase-labeled anti-rabbit IgG antibody (Promega) of the secondary antibody was carried out so that the enzymatic activity was colorized whereupon the MAP kinase and the phosphorylated MAP kinase were measured.
Incidentally, the compound 1 was adjusted to the concentrations of 10 μg/ml, 30 μg/ml, 100 μg/ml and 300 μg/ml by dissolving in 0.1% DMSO. With regard to the control, 0.1% DMSO was added.
Intensity of the concentration of the above-obtained band of the gel subjected to electrophoresis was calculated and quantified using Image J (K. K. Bioarts). The numerical value for the MAP kinase using the compound 1 was divided by the numerical value for the MAP kinase of the control and, further, the numerical value for the phosphorylated MAP kinase using the compound 1 was divided by the numerical value for the phosphorylated MAP kinase of the control whereupon the ratio of the MAP kinase using the compound 1 to the control and the ratio of the phosphorylated kinase using the compound 1 to the control were determined.
After that, the resulting ratio of the phosphorylated MAP kinase to the control was divided by the resulting ratio of the MAP kinase to the control to determine the ratio of the phosphorylated MAP kinase to the MAP kinase (cf. Table 5). In Table 5, “MAPK” means a MAP kinase and “pMAPK” means a phosphorylated MAP kinase. “10”, “30”, “100” and “300” in Table 5 show the examples where 10 μg/ml, 30 μg/ml, 100 μg/ml and 300 μg/ml of the compound 1 were added.
MAP kinase and phosphorylated MAP kinase were measured for the compound 6 ((E)-2-(diethylamino)ethyl dec-2-enoate) and the compound 13 ((E)-2-(2-(diethylamino)ethoxy)ethyl dec-2-enoate) by the same method as in Test Example 1.
Each of the compounds 6 and 13 was dissolved in 0.1% DMSO to adjust to the concentration of 250 μg/ml. With regard to the control, 0.1% DMSO was added. With regard to the concentration of the resulting band of the gel subjected to electrophoresis, its intensity was calculated by the same method as in Test Example 1 using Image J (K. K. Bioarts) and the ratio of the phosphorylated MAP kinase to the control was divided by the resulting ratio of the MAP kinase to the control whereupon the ratio of the phosphorylated MAP kinase to the MAP kinase was determined (cf. Table 6).
With regard to the compound of the present invention, its activation for MAP kinase was measured by the same manner as in Test Example 1.
Each compound was dissolved in 0.1% DMSO to adjust to the concentrations of 30 μg/ml, 60 μg/ml, 125 μg/ml and 250 μg/ml. […]

[2] = tested on: PC12 cells; experiment: Evaluation using PC12 cells; immunostaining method for MAPK phosphorylation; assay type: cell-based; details: 30 minutes
Description: PC12 cells were stimulated using the compound of the present invention and the phosphorylation of MAPK was evaluated by means of immunostaining of the cells. The specific operation procedure is as follows.
A cover glass was placed on a 24-well plate followed by coating with poly-L-lysine. PC12 cells were seeded in a cell density of 50,000 cells/well. (The amount of the medium was 400 μL) On the first day after seeding the cells, the medium was exchanged to DMEM containing 1% fetal bovine serum (FBS) and 0.06% L-glutamine.
The compound which was previously diluted with DMSO was dissolved in 100 μl of medium. After 12 to 16 hours from the medium exchange, 100 μl out of 400 μl of the medium was removed from each well and, in place of that, 100 μl of a medium containing the compound was added.
After 30 minutes from the addition, fixation was conducted using 4% paraformaldehyde (PFA) for 10 minutes. The fixed cells were washed with a Tris-buffered saline (TBS) and a TBS containing 0.3% Triton X was added thereto followed by incubating at 37° C. for 30 minutes. This was washed with a TBS and blocked with a TBS containing 3% skim milk for 30 minutes (at room temperature).
This was washed with a TBS for one time and a primary antibody (anti-phospho-p42/44 MAPK antibody; cell signalings; #9102 being diluted with TBS to an extent of 1,000-fold) was added thereto followed by subjecting to the reaction at 4° C. for one night. The primary antibody was removed and washed with a TBS for three times. After that, the secondary antibody (Alexa 488 goat anti-rabbit antibody; Invitrogen: being diluted to an extent of 1,000-fold using a TBS containing 1% Block Ace) was added thereto and the reaction was conducted at room temperature for 3 hours. The secondary antibody was removed and, after washing with a TBS, fixation was conducted with 4% PFA for 1 hour.
This was washed with a TBS, Hoechst (diluted with a TBS to an extent of 2000-fold) was added thereto and nuclear staining was conducted. This was washed and mounted.
Taking the photographic pictures and counting the positive cells were conducted as follows. An all-in-one microscope (manufactured by Keyence) was used, exposing time for pMAPK (green) was made 1/2.8 s, the place was appropriately decided in a Hoechst-stained image and the pictures were taken. Four pictures per one glass sheet were taken.
Photoshop (Adobe) was used and the cells having above a certain luminance were judged to be positive. All cells were labeled using Hoechst 33342 manufactured by Invitrogen and the rate of pMAPK-positive cells in Hoechst-positive cells was calculated. (cf. Table 7)

[3] = tested on: paclitaxel-induced peripheral nerve disorder rats; experiment: von Frey test in paclitaxel-induced peripheral nerve disorder rats; assay type: in vivo; details: Rattus norvegicus, ip; single intraperitoneal dose of 300 μ/kg; higher of the thresholds after 1 hour and 5 hours; normal threshold 15; read-out: Recovery rate of 50% reaction threshold value (%)
Description: The effect of the compound of the present invention was tested for a peripheral nerve disorder which is a side effect induced by the administration of paclitaxel (an anti-cancer agent) such as hyperesthesia including allodynia (severe pain induced by such tactile stimuli which usually cause no pain). The compound of the present invention was intraperitoneally administered to rats as a test drug to conduct a von Frey test.
Male SD rats of six weeks age (one group comprising six rats) were used as experimental animals and paclitaxel (2 mg/kg) was intraperitoneally administered every other day for four times in total to prepare paclitaxel-induced peripheral nerve disorder rats. During 18 and 25 days or during 20 to 27 days after initiation of paclitaxel administration, the test drug was intraperitoneally administered in a single dose of […] and the following von Frey test was conducted.
The rats of the above (1) were placed in a transparent acrylic cage with a wire-meshed floor and habituated for about three minutes and the 50% reaction threshold values to the mechanical stimulus of right hind limb were measured before administration of the test drug and after 1, 5 and 24 hours from initiation of the administration.
The measurement was conducted using von Frey filaments (manufactured by North Coast Medical Inc.) in accordance with the methods of Chaplan, et al. (Journal of Neuroscience Methods, vol. 53, no. 1, pages 55 to 63, 1994) and Dixon, et al. (Annual Review of Pharmacology and Toxicology, vol. 20, pages 441 to 462, 1980). […] The case where the rat escaped at the instance of removing the filament was also called positive. When the positive reaction was noted, stimulus was conducted similarly using a filament of one rank weaker while, when no reaction was noted, stimulus was conducted similarly using a filament of one rank stronger and the point when the reaction changed from negative to positive or from positive to negative was called the first two reactions. After that, stimulus was conducted for continuous four times by the same up-down method. A 50% reaction threshold value to the mechanical stimulus was measured using the reaction to the six stimuli in total and then (mean value)±(standard error) for each group was calculated. Incidentally, when stimulus reached by that of 15.0 g without positive reaction or, when positive reaction continued to 0.4 g, then 15.0 g or 0.25 g was adopted as each threshold value, respectively. With regard to the higher 50% reaction threshold value between the 50% threshold values after 1 hour and 5 hours from administration of a test drug, a recovery rate (%) of the 50% reaction threshold value was calculated by the following expression in which 15 was adopted as the normal threshold value. Recovery rate (%) of 50% reaction threshold value=[(50% reaction threshold value after 1 hour or 5 hours from administration of test drug)−(50% reaction threshold value before administration of test drug)]/[(Normal threshold value)−(50% reaction threshold value before administration of test drug)]

Row | SMILES | Ratio of pMAPK to MAPK ([1]; 30 μg/mL) | Ratio of pMAPK to MAPK ([1]; 60 μg/mL) | Ratio of pMAPK to MAPK ([1]; 125 μg/mL) | Rate of pMAPK-positive cells (%) ([2]; 62.5 μg/mL) | Rate of pMAPK-positive cells (%) ([2]; 125 μg/mL) | Rate of pMAPK-positive cells (%) ([2]; 250 μg/mL) | Rate of pMAPK-positive cells (%) ([2]; 500 μg/mL) | pMAPK/MAPK/Control ([1]; 250 μg/ml, Test Example 2, control = 1.00) | inhibition in vivo at 0.3 mg/kg [3] | Ratio of pMAPK to MAPK ([1]; 250 μg/mL)
1 | CCCCCCC/C=C/C(=O)OCCCCN(C)C [Compound 4, (E)-4-(dimethylamino)butyl dec-2-enoate] | 2.2 | 3.2 | 20.6 | 12% | 27% | 64% | 81% |  |  | 
2 | CCCCCCC/C=C/C(=O)OCCOCCN(CC)CC [Compound 13, (E)-2-(2-(diethylamino)ethoxy)ethyl dec-2-enoate] | 2.6 | 3.1 | 1.3 | 35% | 35% | 52% |  | 1.46 |  | 
3 | CCCCCCC/C=C/C(=O)N(C)CCN(C)C [Compound 42, (E)-N-(2-(dimethylamino)ethyl)-N-methyl dec-2-enamide] |  |  |  | 6% | 7% | 27% |  |  | 48.7% | 
4 | CCCCCCC/C=C/C(=O)N(CC)CCN(C)C [Compound 43, (E)-N-(2-(dimethylamino)ethyl)-N-ethyl dec-2-enamide] |  |  |  | 20% | 26% | 49% |  |  | 40.3% | 
5 | CCCCCCC/C=C/C(=O)N(CC)CCN(CC)CC [Compound 44, (E)-N-(2-(diethylamino)ethyl)-N-ethyl dec-2-enamide] |  |  |  | 17% | 7% | 18% |  |  | 62.6% | 
6 | CCCCCCC/C=C/C(=O)N(CCN(C)C)CCN(C)C [Compound 45, (E)-N,N-bis(2-(dimethylamino)ethyl) dec-2-enamide] |  |  |  | 34% | 67% | 50% |  |  | 37% | 
7 | CCCCCCC/C=C/C(=O)N(CCN(CC)CC)CCN(CC)CC [Compound 46, (E)-N,N-bis(2-(diethylamino)ethyl) dec-2-enamide] |  |  |  | 22% | 13% | 32% |  |  | 19.9% | 
8 | CCCCCCC/C=C/C(=O)N(CCCN(C)C)CCCN(C)C [Compound 47, (E)-N,N-bis(3-(dimethylamino)propyl) dec-2-enamide] |  |  |  | 17% | 33% | 23% |  |  | 37.4% | 
9 | CCCCCCC/C=C/C(=O)SCCN(CC)CC [Compound 56, (E)-S-2-(diethylamino)ethyl dec-2-enethioate] |  | 5.0 | 7.4 |  |  |  |  |  | 60.5% | 5.7

Source: patent US8987486B2, “Trans-2-decenoic acid derivative and pharmaceutical agent containing the same” (Nagoya Industrial Science Research Institute, priority 2010, dated 2015)
